Measured values taken from patent US9782379B2, “Use of protectin DX for the stimulation of muscular IL-6 secretion” (Universite Laval, priority 2013, dated 2017).

How the values were obtained:
[1] = tested on: wild-type (WT) C57BL/6J control mice; test: second paired saline/lipid infusion 2.5 mU/kg/min hyperinsulinemic-euglycemic clamp, wild-type mice; format: in vivo
Method: (§1) For the second paired lipid infusion HIE clamp study, 10 week old male B6.129S2-ll6^tmkopf/J (IL-6 KO) and control C57BL/6J (WT) mice from Jackson Labs were used. Mice from each genetic background were randomly assigned to saline-vehicle, saline-PDX, lipid-vehicle and lipid-PDX groups. The lipid-infusion clamp study was performed as described above, except the clamp was performed with a 2.5 mU·kg^−1·min^−1 insulin infusion as per^29.
(§2) To confirm the involvement of IL-6 in the beneficial effects of PDX we performed a second round of paired lipid infusion hyperinsulinemic-euglycemic clamp studies in IL-6 null (KO) mice alongside wild-type (WT) C57BL/6J control mice. Saline-infused mice treated with PDX were added to the study to ascertain whether PDX also improves glucose metabolism in insulin-sensitive mice. To ensure detection of potential differences between insulin-sensitive saline-infused animals we performed 2.5mU/kg/min rather than 4 mU/kg/min clamps.

J77A4 macrophages = test: IL-6 release from cultured macrophages in the absence of palmitate stimulation; format: cell-based, murine
Excerpt: (a-b) Skeletal muscle and liver IL-6 protein expression. (c) Total plasma adiponectin. (d) Immunoblots for pAMPK thr172 and total AMPK in skeletal muscle. (e) Immunoblots for pSTAT-3 ser727 and total STAT-3 in liver. Quantification of densitometry analyses for immunoblots are shown below the representative gels. In each case lanes were run on the same gel but were noncontiguous. (f-h) Relative mRNA expression for Ppargc1, Pck1 and G6Pc in liver. All genes were normalized to GAPDH using the delta delta CT method. All data are mean±SEM, n=6, *P<0.05, **P<0.01 vs Saline; ^†P<0.05, ^††P<0.01vs Lipid. (i) IL-6 in media of C2C12 myotubes exposed to PDX for 2 h. (j) IL-6 mRNA expression in C2C12 myotubes exposed to PDX for 2 h. (k) Immunoblots for pAMPK thr172 and total AMPK in C2C12 myotubes exposed to PDX for 2 h. Quantification of densitometry analyses for immunoblots are shown below the representative gels. Lanes were run on the same gel but were noncontiguous. Data are mean±SEM of three independent experiments. *P<0.05, **P<0.01 vs vehicle. (I) IL-6 in media of C2C12 myotubes exposed to Veh, or 100 nM of PDX, PD1, 8(S),15(s)-DiHETE, or RvD1. Data are mean±SEM of three independent experiments. **P<0.01 vs vehicle. (m) IL-6 in media of J77A4 macrophages treated with Veh, LPS, or PDX (10, 100, or 1000 nM) for 30 min, 2 h and 8 h. (n) Immunoblots for pAMPK thr172 and total AMPK in C2C12 myotubes exposed to PDX for 2h. Quantification of densitometry analyses for immunoblots are shown below the representative gels. Data are mean±SEM of three independent experiments. **P<0.01 vs vehicle.
In order to address the dichotomy in PDX's effect on IL-6 release from muscle versus macrophages, we next examined the impact of PDX on IL-6 release from cultured macrophages in the absence of palmitate stimulation (FIG. 5m). […] Since activation of AMPK represses inflammatory cytokine production in macrophages^19 this may explain the opposing effect of PDX on IL-6 expression and release in skeletal myotubes and activated macrophages.

[2] = tested on: genetically obese db/db mice; test: 4 mU/kg hyperinsulinemic-isoglycemic clamp in db/db mice, acute PDX; format: in vivo
Method: The 4 mU/kg hyperinsulinemic-isoglycemic clamp study was performed in 10 week old db/db mice from the BKS.Cg-Dock7^m+/+Lepr^db/J strain at Jackson Labs. Mice were randomly assigned to vehicle or PDX treatment groups. In preparation for the clamps mice were catheterized as described for the lipid infusion study. Mice were administered 2 ug of PDX or an equal volume of vehicle i.v. at 4 h and also 90 minutes prior to the initiation of the insulin pump. Pre-clamp glycemia was taken immediately prior to the second PDX shot. The clamp began 90 minutes later with a primed-continuous infusion of human insulin (16 mU/kg bolus followed by 4 mU·kg^−1·min^−1, Humulin R; Eli Lilly, Indianapolis, Ind.). Glycemia was maintained as close as possible to individual fasting values by infusing 20% dextrose as necessary. Blood samples were taken continuously to determine glycemia as well as insulin concentrations. Mice received saline-washed erythrocytes from donor mice throughout the experimental period (5-6 μl·min-1) to prevent a fall of ≧5% hematocrit.
We further explored the therapeutic efficacy of PDX in genetically obese db/db mice, a well-established model of T2D. Here we tested the ability of PDX to rapidly alleviate insulin resistance using a 4 mU/kg hyperinsulinemic-isoglycemic clamp (see design in FIG. 1). In these experiments, db/db mice were treated with vehicle or PDX (2 μg i.v.) 240 and 90 minutes prior to the initiation of the clamp.

IL-6 null (KO) mice = test: second paired saline/lipid infusion 2.5 mU/kg/min hyperinsulinemic-euglycemic clamp, IL-6 null mice; format: in vivo
Method: as §1, §2

[3] = saline and lipid-infused WT mice, P<0.05
[4] = saline and lipid-infused KO mice

## CC/C=C\C[C@H](O)/C=C/C=C\C=C\[C@@H](O)C/C=C\C/C=C\CCC(=O)O [PDX, 10S,17S-dihydroxy-docosa-4Z,7Z,11E,13Z,15E,19Z-hexaeonic acid]
[1]; insulin sensitive saline infused mice
  Akt phosphorylation: without raising
[1]; lipid-infused WT mice, P<0.001
  hepatic insulin action: improved
[1]; lipid-infused WT mice, P<0.01, P<0.05, p<0.001
  suppression of Ppargc1, Pck1 and G6Pc (liver mRNA): significantly improved the suppression
[1]; lipid-infused WT mice, P<0.05
  peripheral insulin action: improved
[1]; [3]
  GIR: significantly enhanced
  pre-clamp glycemia: significant fall
[1]; saline-infused WT mice, P<0.01
  transcriptional repression of PEPCK (liver): additive effect
[1]; saline-infused WT mice, P<0.05
  hepatic insulin action: superior hepatic insulin action
[1]; saline-infused WT mice, P=0.0614
  suppression of G6Pc (liver): tended to improve
[1]; saline-infused mice
  peripheral glucose disposal: did not increase
  suppression of PGC-1α (liver mRNA): not associated with further suppression
J77A4 macrophages; P<0.01
  AMPK phosphorylation: promote AMPK phosphorylation
J77A4 macrophages; no palmitate
  IL-6 mRNA expression: does not stimulate
J77A4 macrophages; no palmitate, PDX 10, 100, or 1000 nM for 30 min, 2 h and 8 h
  IL-6 release: does not stimulate
[2]; PDX 2 μg i.v. 240 and 90 minutes prior to clamp
  lowering of pre-clamp glycemia: did not reach statistical significance
[2]; PDX 2 μg i.v. 240 and 90 minutes prior to clamp, P<0.01
  improvement of the GIR during the clamp: 3.6 fold
[2]; PDX 2 μg i.v. x2
  PGC-1α, PEPCK, and G6Pase mRNA expression in liver: enhanced suppression
[2]; PDX 2 μg i.v. x2, P<0.01
  IL-6 in the skeletal muscle and plasma: increased
[2]; epididymal adipose tissue
  adipose tissue chemokines or cytokines: absence of any significant anti-inflammatory impact
IL-6 null (KO) mice; KO mice, saline and lipid-infused
  activation of hepatic STAT-3: completely absent
IL-6 null (KO) mice; lipid-infused IL-6 KO mice, P<0.001
  lipid-induced elevations in circulating TNFa: potently suppress
IL-6 null (KO) mice; lipid-infused KO mice
  effect on hepatic insulin action: only partially lost
  effect on peripheral insulin action: completely absent
  effects on suppression of Ppargc1, Pck1 and G6Pc: entirely absent
  stimulatory effect on AMPK phosphorylation (muscle): fully maintained
IL-6 null (KO) mice; [4]
  IL-6 in skeletal muscle: failed to raise
  effect on pre-clamp glycemia: completely absent
  enhancement of GIR: this was not the case
IL-6 null (KO) mice; saline-infused KO mice
  effect on hepatic insulin action: completely absent
  effect on transcriptional repression of PEPCK: completely absent
  improved suppression of G6Pc: this was not the case
